# System: MCAo in rats
# Test: MCAo experimental model, infarct volume (TTC staining)
# Format: in vivo, Sprague-Dawley rat
# Conditions: positive control, 45 mg/kg
# Method: To determine the preventing effect of the extract of crude drug complex of the present invention on neuronal injury, following intraluminal suture method using animal model was performed by modifying well-mown method disclosed in the literature (Zea L. E. Stroke, 20, pp 84-91, 1989).
# 8-weeks old white male Sprague-Dawley rat weighing about 280 g was procured from Samtaco Co. Ltd. (Seoul), […] for 1 week providing with free access to water and feed and acclimated to experimental environment.
# The rat was anesthetized with 5% isoflurane gas (mixed gas with the gas mixture consisting of 70% N2O and 30% O2 gas and 5% isoflurane) and maintained with 1% isoflurane gas during experiment.
# The skin at the center of rat neck was excised and right CCA (common carotid artery) and ECA (external carotid artery) were isolated from neighboring tissue and nerves with care. […]
# The body temperature was monitored and maintained at 37±0.5° C.
# The caudal was excised and terminal tissue was discarded to obtain 6 numbers of brain slices with the thickness of 2 mm using by brain matrix. […] The volume of cerebral infarction region was calculated by the OPTIMAS program (Media Cybernetics Co., 6.51 version). To determine the exact volume of cerebral infarction region of right hemisphere excluding edema volume (A), the real volume of cerebral infarction (B) was calculated by following Empirical Formula 1 and 2. […]
smiles,measurement,value
CN(C)c1ccc(O)c2c1C[C@H]1C[C@H]3[C@H](N(C)C)C(O)=C(C(N)=O)C(=O)[C@@]3(O)C(O)=C1C2=O [minocycline],infarct volume,20.5±2.85%

# From US8241679B2, “Composition comprising the extract of crude drug complex having neuroprotective activity for preventing and treating stroke and neurodegenerative diseases” (Neumed Inc., priority 2007, dated 2012)
